Laboratory results from patent EP2857388A1, “Azoles containing sulfone” (Grünenthal GmbH, priority 2013, dated 2015).

Biological target: T1, human B1R (Homo sapiens, UniProt P46663)
T1 construct: expressed in transfected cells; host or cells: CHO K1 cells (Chinese Hamster Ovary), stably transfected
T1 sequence (P46663 1-353): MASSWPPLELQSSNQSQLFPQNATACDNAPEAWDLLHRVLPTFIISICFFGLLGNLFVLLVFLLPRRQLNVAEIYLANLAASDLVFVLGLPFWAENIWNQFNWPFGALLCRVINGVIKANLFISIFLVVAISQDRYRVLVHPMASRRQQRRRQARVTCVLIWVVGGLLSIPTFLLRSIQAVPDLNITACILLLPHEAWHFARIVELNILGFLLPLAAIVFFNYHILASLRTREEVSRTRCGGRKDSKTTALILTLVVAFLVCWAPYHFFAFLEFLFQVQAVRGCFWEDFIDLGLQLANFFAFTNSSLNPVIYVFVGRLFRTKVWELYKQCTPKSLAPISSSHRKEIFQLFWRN
Assay: Functional assay at bradykinin receptor 1 (B1R): Ca2+ fluorescence (Fluo-4) in FLIPR/Novostar, antagonist mode
Assay type: cell-based
Settings: test substance 10 µM; CHO K1 cells stably transfected with human B1R gene (hB1R-Zellen); agonist Lys-Des-Arg9-Bradykinin at EC80; % inhibition relative to maximal achievable inhibition
Procedure, shortened: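 Antagonism read as suppression of the Ca2+ rise in Fluo-4-loaded, hB1R-transfected CHO K1 cells when Lys-Des-Arg9-bradykinin (EC80) follows a 6–20 min compound preincubation. Maximal fluorescence counts, measured on FLIPR or Novostar, yield % inhibition relative to maximum; IC50 values come from concentration series run in duplicate or triplicate.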

| % Inhibierung (human B1R) bei 10 µM [%] | Molecule |
| --- | --- |
| 90 | 2-[3-[[(4-Chlor-2,5-dimethyl-phenyl)sulfonyl]-methyl]-[1,2,4]oxadiazol-5-yl]-N-cyclopropyl-N-(4-dimethylamino-cyclohexyl)-acetamid [CC-113] |

Same assay, conditions: test substance 10 µM; CHO K1 cells stably transfected with human B1R gene (hB1R-Zellen); agonist Lys-Des-Arg9-Bradykinin at EC80; % inhibition relative to maximal achievable inhibition; read-out: % Inhibierung (human B1R) bei 10 µM

| Molecule | inhibition at 10 µM [%] |
| --- | --- |
| Cc1cccc(Cl)c1S(=O)(=O)Cc1noc(C(=O)N2CCC(N3CCN(C)CC3)CC2)n1 [CC-138, [3-[[(2-Chlor-6-methyl-phenyl)sulfonyl]-methyl]-[1,2,4]oxadiazol-5-yl]-[4-(4-methyl-piperazin-1-yl)-piperidin-1-yl]-methanon] | 95 |
| COc1cc(C)c(S(=O)(=O)Cc2cc(C)n(CC(=O)NC3CCNCC3(C)C)n2)c(C)c1 (stereo not drawn) [CC-171, N-(3,3-Dimethyl-piperidin-4-yl)-2-[3-[[(4-methoxy-2,6-dimethyl-phenyl)sulfonyl]-methyl]-5-methyl-1 H-pyrazol-1-yl]-acetamid] | 71 |
| Cc1cccc(Cl)c1S(=O)(=O)Cc1noc(CC(=O)NC2CCC(N3CCCC3)CC2)n1 (stereo not drawn) [CC-93, 2-[3-[[(2-Chlor-6-methyl-phenyl)sulfonyl]-methyl]-[1,2,4]oxadiazol-5-yl]-N-(4-pyrrolidin-1-yl-cyclohexyl)-acetamid] | 100 |
| COc1cc(C)c(S(=O)(=O)Cc2noc(CC(=O)N3CCC(N4CCN(C)CC4)CC3)n2)c(C)c1 [CC-131, 2-[3-[[(4-Methoxy-2,6-dimethyl-phenyl)sulfonyl]-methyl]-[1,2,4]oxadiazol-5-yl]-1-[4-(4-methyl-piperazin-1-yl)-piperidin-1-yl]-ethanon] | 100 |
| COc1cc(C)c(S(=O)(=O)Cc2cc(C)n(CC(=O)NC3CCC(N4CCN(C)CC4)CC3(C)C)n2)c(C)c1 (stereo not drawn) [CC-163, N-[2,2-Dimethyl-4-(4-methyl-piperazin-1-yl)-cyclohexyl]-2-[3-[[(4-methoxy-2,6-dimethyl-phenyl)sulfonyl]-methyl]-5-methyl-1H-pyrazol-1-yl]-acetamid] | 99 |
| COc1cc(C)c(S(=O)(=O)Cc2c(C)nn(CC(=O)NC3CCC(N4CCCC4)CC3)c2C)c(C)c1 (stereo not drawn) [CC-164, 2-[4-[[(4-Methoxy-2,6-dimethyl-phenyl)sulfonyl]-methyl]-3,5-dimethyl-1H-pyrazol-1-yl]-N-(4-pyrrolidin-1-yl-cyclohexyl)-acetamid] | 100 |
| COc1cc(C)c(S(=O)(=O)Cc2noc(CC(=O)N3CCN(Cc4ccc(OC)nc4)CC3)n2)c(C)c1 [SC-51, 2-[3-[[(4-Methoxy-2,6-dimethyl-phenyl)sulfonyl]-methyl]-[1,2,4]oxadiazol-5-yl]-1-[4-[(6-methoxy-pyridin-3-yl)-methyl]-piperazin-1-yl]-ethanon] | 100 |
| COc1cc(C)c(S(=O)(=O)Cc2nc(CC(=O)NC3CCC(N4CCCC4)CC3(C)C)no2)c(C)c1 (stereo not drawn) [CC-26, N-(2,2-Dimethyl-4-pyrrolidin-1-yl-cyclohexyl)-2-[5-[[(4-methoxy-2,6-dimethyl-phenyl)sulfonyl]-methyl]-[1,2,4]oxadiazol-3-yl]-acetamid] | 100 |
| COc1cc(C)c(S(=O)(=O)Cc2noc(C(=O)N3CCC4(CCN(C)C4)C3)n2)c(C)c1 (stereo not drawn) [CC-147, [3-[[(4-Methoxy-2,6-dimethyl-phenyl)sulfonyl]-methyl]-[1,2,4]oxadiazol-5-yl]-(2-methyl-2,8-diazaspiro[4.4]nonan-8-yl)-methanon] | 100 |
| COc1cc(C)c(S(=O)(=O)Cc2noc(CC(=O)N3CCC(Cc4ccncc4)CC3(C)C)n2)c(C)c1 (stereo not drawn) [CC-153, 1-[2,2-Dimethyl-4-(pyridin-4-yl-methyl)-piperidin-1-yl]-2-[3-[[(4-methoxy-2,6-dimethyl-phenyl)-sulfonyl]-methyl]-[1,2,4]oxadiazol-5-yl]-ethanon] | 92 |
| Cc1cccc(Cl)c1S(=O)(=O)Cc1noc(CC(=O)NC2CCN(C)CC2(C)C)n1 (stereo not drawn) [CC-96, 2-[3-[[(2-Chlor-6-methyl-phenyl)sulfonyl]-methyl]-[1,2,4]oxadiazol-5-yl]-N-(1,3,3-trimethyl-piperidin-4-yl)-acetamid] | 100 |
| COc1cc(C)c(S(=O)(=O)Cc2cn(CC(=O)NC3CCC(N4CCCC4)CC3)nn2)c(C)c1 (stereo not drawn) [CC-167, 2-[4-[[(4-Methoxy-2,6-dimethyl-phenyl)sulfonyl]-methyl]-1H-[1,2,3]triazol-1-yl]-N-(4-pyrrolidin-1-yl-cyclohexyl)-acetamid] | 100 |
| COc1cc(C)c(S(=O)(=O)Cc2c(C)nn(CC(=O)NC3CCC(N(C)C)CC3)c2C)c(C)c1 (stereo not drawn) [CC-168, N-(4-Dimethylamino-cyclohexyl)-2-[4-[[(4-methoxy-2,6-dimethyl-phenyl)sulfonyl]-methyl]-3,5-dimethyl-1 H-pyrazol-1-yl]-acetamid] | 100 |
| COCCN1CCC(NC(=O)Cn2nc(C)c(CS(=O)(=O)c3c(C)cc(OC)cc3C)c2C)C(C)(C)C1 (stereo not drawn) [CC-165, 2-[4-[[(4-Methoxy-2,6-dimethyl-phenyl)sulfonyl]-methyl]-3,5-dimethyl-1H-pyrazol-1-yl]-N-[1-(2-methoxy-ethyl)-3,3-dimethyl-piperidin-4-yl]-acetamid] | 100 |
| Cc1cc(S(=O)(=O)Cc2noc(C(=O)NC3CCNCC3(C)C)n2)c(C)cc1Cl (stereo not drawn) [CC-24, 3-[[(4-Chlor-2,5-dimethyl-phenyl)sulfonyl]-methyl]-N-(3,3-dimethyl-piperidin-4-yl)-[1,2,4]oxadiazol-5-carbonsäure amid] | 86 |
| Cc1cc(S(=O)(=O)Cc2noc(CC(=O)NC3CCC(N4CCN(C)CC4)CC3(C)C)n2)c(C)cc1Cl (stereo not drawn) [CC-45, 2-[3-[[(4-Chlor-2,5-dimethyl-phenyl)sulfonyl]-methyl]-[1,2,4]oxadiazol-5-yl]-N-[2,2-dimethyl-4-(4-methyl-piperazin-1-yl)-cyclohexyl]-acetamid] | 100 |
| COc1cc(C)c(S(=O)(=O)Cc2c(C)nn(CC(=O)NC3CCC(c4ccncc4)CC3(C)C)c2C)c(C)c1 (stereo not drawn) [CC-172, N-(2,2-Dimethyl-4-pyridin-4-yl-cyclohexyl)-2-[4-[[(4-methoxy-2,6-dimethyl-phenyl)sulfonyl]-methyl]-3,5-dimethyl-1 H-pyrazol-1-yl]-acetamid] | 100 |
| COc1cc(C)c(S(=O)(=O)Cc2noc(CC(=O)N(C)CCC3CCN(c4ccncc4)CC3)n2)c(C)c1 [CC-06, 2-[3-[[(4-Methoxy-2,6-dimethyl-phenyl)sulfonyl]-methyl]-[1,2,4]oxadiazol-5-yl]-N-methyl-N-[2-(1-pyridin-4-yl-piperidin-4-yl)-ethyl]-acetamid] | 100 |

Next, values leading:

| inhibition at 10 µM [%] | Molecule |
| --- | --- |
| 100 | COc1cc(C)c(S(=O)(=O)Cc2noc(CC(=O)N(C)C3CCN(Cc4ccc(OC)nc4)CC3)n2)c(C)c1 [SC-55, 2-[3-[[(4-Methoxy-2,6-dimethyl-phenyl)sulfonyl]-methyl]-[1,2,4]oxadiazol-5-yl]-N-[1-[(6-methoxy-pyridin-3-yl)-methyl]-piperidin-4-yl]-N-methyl-acetamid] |
| 100 | COc1cc(C)c(S(=O)(=O)Cc2noc(C(=O)N3CCN(Cc4ccc(OC)nc4)CC3)n2)c(C)c1 [SC-59, [3-[[(4-Methoxy-2,6-dimethyl-phenyl)sulfonyl]-methyl]-[1,2,4]oxadiazol-5-yl]-[4-[(6-methoxy-pyridin-3-yl)-methyl]-piperazin-1-yl]-methanon] |
| 100 | COc1cc(C)c(S(=O)(=O)Cc2cn(CC(=O)N3CCC(CN4CCN(C)CC4)C3)nn2)c(C)c1 (stereo not drawn) [SC-93, 2-[4-[[(4-Methoxy-2,6-dimethyl-phenyl)sulfonyl]-methyl]-1H-[1,2,3]triazol-1-yl]-1-[3-[(4-methyl-piperazin-1-yl)-methyl]-pyrrolidin-1-yl]-ethanon] |
| 100 | COc1cc(C)c(S(=O)(=O)Cc2noc(CC(=O)N(C)C3CCN(c4ccncc4F)CC3)n2)c(C)c1 [SC-70, N-[1-(3-Fluor-pyridin-4-yl)-piperidin-4-yl]-2-[3-[[(4-methoxy-2,6-dimethyl-phenyl)sulfonyl]-methyl]-[1,2,4]oxadiazol-5-yl]-N-methyl-acetamid] |
| 100 | COc1cc(C)c(S(=O)(=O)Cc2nc(C(=O)N3CCC(CN4CCN(C)CC4)C3)no2)c(C)c1 (stereo not drawn) [SC-88, [5-[[(4-Methoxy-2,6-dimethyl-phenyl)sulfonyl]-methyl]-[1,2,4]oxadiazol-3-yl]-[3-[(4-methyl-piperazin-1-yl)-methyl]-pyrrolidin-1-yl]-methanon] |
| 98 | COc1cc(C)c(S(=O)(=O)Cc2noc(C(=O)NCC3CCC(c4ccncc4)CC3)n2)c(C)c1 (stereo not drawn) [SC-30, 3-[[(4-Methoxy-2,6-dimethyl-phenyl)sulfonyl]-methyl]-N-[(4-pyridin-4-yl-cyclohexyl)-methyl]-[1,2,4]oxadiazol-5-carbonsäure amid] |
| 100 | COc1cc(C)c(S(=O)(=O)Cc2noc(CC(=O)N(C)C3CCN(C(=O)CCN4CCCCC4)CC3)n2)c(C)c1 [SC-46, 2-[3-[[(4-Methoxy-2,6-dimethyl-phenyl)sulfonyl]-methyl]-[1,2,4]oxadiazol-5-yl]-N-methyl-N-[1-(3-piperidin-1-yl-propanoyl)-piperidin-4-yl]-acetamid] |
| 100 | COc1cc(C)c(S(=O)(=O)Cc2noc(CC(=O)N(C)C3CCC(N4CCC(OC)CC4)CC3)n2)c(C)c1 (stereo not drawn) [SC-64, 2-[3-[[(4-Methoxy-2,6-dimethyl-phenyl)sulfonyl]-methyl]-[1,2,4]oxadiazol-5-yl]-N-[4-(4-methoxy-piperidin-1-yl)-cyclohexyl]-N-methyl-acetamid] |
